Laboratory results: patent US20060148829A1, “Means for inducing differentiation of supernumerary hair cells and deiters' cells in the developing organ of corti” (priority 2002, published 2006)
Starred links: 1 amine or outer side, 2 acyl side, 3 side chain; linkers in the order of their positions; H or OH if unused. Positions of bridges follow the written chain, without caps; N, C: chain ends. Non-standard residues stand in square brackets, D forms with d. Residues, ends and D or L forms follow the SMILES beside them. Chains are numbered I, II in the order given. Actinocin(9to1) = Cc1c2oc3c(C)ccc(C(=O)[*:1])c3nc-2c(C(=O)[*:2])c(N)c1=O; NMeV = CN[C@H](C(=O)O)C(C)C; Sar = CNCC(=O)O

What was measured:
[1] = system: rat organ of Corti explants; assay: Induction of supernumerary hair cells (HCs) in cultured organ of Corti explants; conditions: for Induction of supernumerary HCs (in words): E19 rat organ of Corti explants, 5 days in culture; for Concentration inducing maximum supernumerary HCs differentiation: isolated organs of Corti, lowest concentration inducing maximum effect, for inactive compounds highest concentration tested 100 :M
Description: Time-pregnant Sprague-Dawley rats or neonates were killed by euthanasia on gestational days 17 (E17), E19, or on postnatal days 0 (day of birth=P0), P2 and P4 with CO2. Both cochleae were dissected free from the calvaria with watchmaker forceps and under a stereomicroscope. Each organ of Corti was freed from surrounding tissues and explanted intact onto the surface of a sterile membrane (Mllicellm, 12 mm, Millipore, Bedford, Mass., USA) in minimum essential medium (MEM; Gibco, Gent, Belgium) into a 24-well culture plate (Nunc). Cultures were incubated at 37° C. in a humidified atmosphere of 95% air and 5% CO2. Medium was renewed every 2 days.
Organs of Corti were dissected from E19 rats and maintained in culture. […] For each condition, the explants were fixed and the supernumerary zones were counted after myosin VIIa immunostaining.
Quantitative analysis of supernumerary HCs production was obtained by counting the number of HCs per length and surface of sensory epithelium regions from the medium turn as previously described (5). If supernumerary cells were actually produced, the number of cells per unit of length should increase while the number of cells per surface unit should remain at the same level. […] The total length of each organ of Corti explant was measured and the extent of the region with supernumerary HCs was expressed as percent of total length. These supernumerary regions were defined by the presence of more than four rows of HCs.

CDK1/cyclin B = conditions: Knockaert et al, 2002b; cited from earlier work
[2] = system: E19 explants of organ of Corti; assay: BrdU labelling of cell proliferation in organ of Corti explants; type: cell-based, rat
Method: Immunohistochemistry, immunocytochemistry and confocal microscopy were carried out as previously described (4;5). Whole-mount preparations or cryostat sections (10-20 :m) were fixed with either 4% paraformaldehyde (10 min. at 20° C.) or methanol (5 min. at −20° C.). Primary antibodies incubations were performed overnight at 4° C. Preparations were washed three times in PBS before incubating with a secondary antibody conjugated to alexa488, alexa568 or TRITC fluorophore for 1 hour at 20° C. Sequential double labeling experiments were done with a 4% paraformaldehyde fixation step in between each immunoreaction. Preparations were mounted on microscope slides and coverslipped with Fluoprep mounting medium (BioMérieux, Marcy l'Etoile, France) and imaged using a Bio-Rad MRC1024 laser scanning confocal microscope. To label cells in S phase in vitro, BrdU (10 :M, Sigma, USA) which is incorporated into replicating DNA, was added to the cultures for 2 or 5DIV prior staining.

[3] = system: E19 rat organ of Corti explants; assay: TUNEL labelling of apoptosis in organ of Corti explants; type: cell-based; conditions: 10 :M, after 1, 2 or 5 DIV
Description: The apoptosis in E19 rat organ of Corti explants was looked for by staining the specimens cultured for 1, 2 or 5DIV with the terminal deoxynudeotidyl transferase-mediated dUTP nick-end labelling (TUNEL) method using the ApopTag fluorescent detection kit (Oncor, Gaitherburg, Md.) as previously described (6).

[4] = system: mouse organs of Corti (Math1 genotypes); assay: Roscovitine-induced HCs in organs of Corti of wild type, Math1-null and heterozygote mice; type: cell-based; conditions: 5DIV
Method: Math1 knockout mice were generated by replacing the Math1 open reading frame (ORF) with the selectable marker PGKhprt as previously described by Ben-Arie et al.(l). Math1^∃^gal/^∃^-gal knock-in mice were generated by replacing the Math1 ORF with a ∃-galactosidase (∃-gal) reporter gene so that ∃-gal is expressed in all cells that express Math1 (2).
Whole-mount lacZ staining was carried out on cultured E15.5 organ of Corti explants as previously described (2;3). After 5DIV, explants were fixed in 4% paraformaldehyde for 20 minutes, washed thoroughly in PBS and equilibrate in X-gal staining buffer (5 mM potassium ferricyanide, 5 mM potassium ferrocyanide, 0.02% NP40, and 0.01% sodium deoxycholate). Explants were stained overnight in X-gal buffer with X-gal (1 mg/ml) then post-fixed in 4% paraformaldehyde. Genotyping of tail DNA was performed using Southern analysis of EcoRI digested DNA and probes as previously described (1).

[5] = Administration to patients suffering of deafness; type: in vivo; conditions: regularly administered

Compound	Induction of supernumerary HCs (in words) [1]	Concentration inducing maximum supernumerary HCs differentiation [1]	further results
indirubin-3′-monoxime	induced the appearance of supernumerary HCs	10 :M	
Cn1cnc2c(NCc3ccccc3)nc(NCCO)nc21 [olomoucine]		30 :M	
Cc1c2oc3c(C)ccc(C(=O)N[C@@H]4C(=O)N[C@H](C(C)C)C(=O)N5CCC[C@H]5C(=O)N(C)CC(=O)N(C)[C@@H](C(C)C)C(=O)O[C@@H]4C)c3nc-2c(C(=O)N[C@@H]2C(=O)N[C@H](C(C)C)C(=O)N3CCC[C@H]3C(=O)N(C)CC(=O)N(C)[C@@H](C(C)C)C(=O)O[C@@H]2C)c(N)c1=O [Actinomycin D, actinomycin D] (I: T[dV]P[Sar][NMeV] / II: T[dV]P[Sar][NMeV]; ester I:1-I:C, II:1-II:C; linker I:N-II:N via Actinocin(9to1))	able to induce supernumerary HCs	0.0001 :M	
CC(C)[C@H](CO)Nc1nc(N(C)c2cc(N)cc(Cl)c2)c2ncn(C(C)C)c2n1 [6-methyl-aminopurvalanol, N6-methyl-aminopurvalanol]	no effect	no effect	
N#CC(=C(/N)Sc1ccccc1N)/C(C#N)=C(\N)Sc1ccccc1N [U0126]	did not induce supernumerary HCs	no effect	CDK1 inhibition (IC50) (CDK1/cyclin B): no effect
CC(C)[C@H](CO)Nc1nc(Nc2cc(N)cc(Cl)c2)c2ncn(C(C)C)c2n1 [aminopurvalanol]		5 :M	
OC[C@H]1O[C@@H](n2cnc3cc(Cl)c(Cl)cc32)[C@H](O)[C@@H]1O [DRB, 6-dichloro-1-beta-D-ribobenzimidazole]	able to induce supernumerary HCs	0.01 :M	
CC[C@H](CO)Nc1nc(NCc2ccccc2)c2ncn(C(C)C)c2n1 [roscovitine]	higher number of supernumerary HCs and corresponding SCs	10 :M	Developmental stage dependence of induction of supernumerary HCs ([1]; 10 :M, 5 days of culture, stages E17 to P4): culminated at E17, sightly decreased at E19 and disappeared at P0; Toxicity for cells in the organ of Corti ([1]; 30 and 100 :M): toxic for all cells in the organ of Corti; Time in culture for maximal effect on length of supernumerary zones ([1]; E19 rat explants, 10 :M): 5 DIV; Supernumerary segments as percent of the total length of the explants ([1]; E19 rat explants, 10 :M, 5DIV, mean, S.D., n=4 independent experiments): 52.9%; Time in culture for effect on length of supernumerary zones ([1]; E19 rat explants, 10 :M, significant effect): 4 DIV; Density of HCs per surface unit vs control explants ([1]; roscovitine-treated explants): remained identical to that of control explants; Rate of proliferation of mesenchymal cells in connective tissue ([2]; E19 explants, BrdU): higher in the absence of roscovitine; BrdU labelling of epithelial cells in the area of HCs and SCs ([2]; roscovitine-treated E19 explants, 10 :M BrdU, 2 or 5 DIV): No epithelial cells were labeled with BrdU; TUNEL positive nuclei [3]: no TUNEL positive nuclei were identified; Myosin VIIA positive supernumerary HCs, wild type mice ([4]; E15 or E18 wild type mice): myosin VIIA immunopositive supernumerary HCs, (FIG. 9A) were observed; Supernumerary HCs, Math1 heterozygote mice ([4]; E15.5 Math1 +/beta-gal organs of Corti, 10 :M): supernumerary HCs were present; Myosin VIIA staining, Math1-null mutant mice ([4]; E15.5 Math1-null cochlea): absent; Clinical effect in patients suffering of deafness [5]: An improvement of their troubles was observed; Tolerability in patients suffering of deafness [5]: without any drawbacks
Cn1cnc2nc(NCCO)nc(NCc3ccccc3)c21 [iso-olomoucine]	no effect	no effect	
O=C1Cc2c([nH]c3ccc([N+](=O)[O-])cc23)-c2ccccc2N1 [alsterpaullone]	induced the appearance of supernumerary HCs	5 :M	
O=C1c2ccccc2-[n+]2ccc3c([nH]c4ccccc43)c21 [fascaplysin]	no effect	no effect	CDK1 inhibition (IC50) (CDK1/cyclin B): no effect
